According to patent publication US20230073946A1, “AFFINITY PEPTIDE […] A[…] PROTECTION OF PROTEINS FROM OXIDATION” (ARIZONA BOARD OF REGENTS ON BEHALF OF THE UNIVERSITY OF …, priority 2020, published 2023):
“Also recorded” adds a separate entry of the source.

How the values were obtained:
LDH = conditions: SU2 rats, NP treatment, lung tissue
Experimental: Female Sprague Dawley rats (200-250 g) obtained from Charles River (Wilmington, Mass., USA) were used in this study. […] Generally, PAH was induced by a single injection of SU5416 (50 mg/kg) subcutaneously, followed by 3 weeks of hypoxia (10% 02) and 2 weeks of normoxia. This study included five animal groups: control group; SU1, rats were analyzed after 1 week of SU5416 and hypoxia treatment; SU2, rats were analyzed after 2 weeks of SU5416 and hypoxia treatment; SUS, rats were analyzed after 5 weeks of SU5416 treatment (3 weeks of hypoxia with a following 2 weeks of normoxia); and SU2+NP peptide treatment 0.1 mg/kg/day intravenous (i.v.) injection started with SU5416 treatment for two-weeks.
LDH activity in lung tissue was assessed by Lactate Dehydrogenase Activity Colorimetric Assay Kit (K726, BioVision Inc. Calif., USA) according to manufacturer's instruction. All values were normalized with respect to protein concentrations as determined by the Pierce™ BCA Protein Assay Kit (Thermo Scientific, Rockford, Ill.).

sugen/hypoxia PAH model [1] = assay: Western blot of metabolic proteins in lung tissue, sugen/hypoxia PAH model; type: in vivo, rat; conditions: SU2 rats
Experimental: (§1) For an analysis of the total lung protein, lung tissues were lysed as previously described. Briefly, 20-40 mg of lung tissue (human/rat) was lysed in Permeabilization Buffer mixed with protease and phosphatase inhibitor cocktails using a Fisher Homogenizer 850. The homogenate was centrifuged at 10,000 g for 10 min, and the supernatant was carefully collected. Cell membrane and cytosolic fractions were isolated using FractionPREP™ cell fraction kit (Biovision, Milpitas, Calif.) according to manufacturer's instruction. The protein concentration was measured using the BCA protein assay kit (Thermo Scientific, Rockford, Ill.). Samples were incubated with 6×Laemmli sample buffer (Boston Bioproducts Inc., Ashland, Mass.), for 5 min at 95° C., loaded on the 4-20% SDS-PAGE Mini-PROTEAN TGX Stain-Free™ gels (Bio-Rad Laboratories Inc., Hercules, Calif.) and separated by electrophoresis. Protein bands were transferred using Trans-Blot Turbo transferring system (Bio-Rad Laboratories Inc.) and then blocked with 5% bovine serum albumin in Tris-buffered saline. Membranes were probed using antibodies against Glut 4 (07-1404) from Millipore, pyruvate carboxylase (PC) (Ab229267) & peroxisome proliferator-activated receptor gamma coactivator 1-alpha (PGC-1α) (Ab191838) from Abcam, pyruvate dehydrogenase (PDH) (45-6600) from Invitrogen, phospho Akt (Ser 473) (4060S), Akt (9272S), hexokinase 1 (HK1) (C35C4), glyceraldehyde-3 phosphate dehydrogenase (GAPDH) (2118S), lactate dehydrogenase-A (LDHA) (2012S), phospho glycogen synthase kinase (GSK) 3 β (Ser9) (9336S), GSK3 β(9315S) and glucose 6-phosphate dehydrogenase (G6PD) (8866S) from Cell Signaling Technology. Mouse monoclonal anti-nitrotyrosine antibodies were obtained from Calbiochem, La Jolla, Calif. (487923). Akt Y350 NO2 antibody obtained as a custom-made antibody against Akt1-nitro (341-353) and the sequence was CGRLPF-nitroY-NQDHEK (SEQ ID NO: 2). Two peptides were developed with and without Y350 nitration. The antibody developed against nitrated peptide cleaned using non-nitrated peptide (Akt1 (341-353): […], SEQ ID NO: 3) to remove nonspecific antibodies. Affinity purification was done using large reusable affinity purification columns against the unmodified and nitrated peptides. […] Since the quantification of the Akt nitration is not fully established by mass spectrometry, a common method was used by newly developed antibodies for the quantification of specific Y350 nitration of Akt. The reactive bands were visualized by chemiluminescent ChemiDoc™ MP Imaging System (Bio-Rad Laboratories Inc., Hercules, Calif.) and analyzed using Image Lab™ software. The protein loading was normalized per total sample protein as fold control using stain free gels as previously described. This normalization is equal to housekeeping genes normalization and rigorously evaluated by Bio-Rad company (http://www.bio-rad.com/en-us/applications-technologies/stain-free-imaging-technology?ID=NZ0G1815) and others in comparison with beta-actin normalization.

HPASMCs [2] = assay: Seahorse mitostress assay (OCR); type: cell-based, human; conditions: SIN-1 treatment
Experimental: (§2) For the glycostress Seahorse assay, human pulmonary artery smooth muscle cells (HPASMCs) were seeded in a 24 well Seahorse cell culture microplate at 50000/well and kept overnight to form a monolayer. On the day of experiment, the media was aspirated and cells were incubated at 37° C. in a non-CO2 incubator for 1 hour with 0.5 mL XF base medium (cat #102353-100, Agilent, Santa Clara, Calif.) supplemented with 2 mM glutamine. Glucose (56 μL, 100 mM), Oligomycin (62 μL, 100 μM) and 2-deoxyglucose (69 μL, 500 mM) was added to the flux pack wells (cat #102342-100, Agilent, Santa Clara, Calif.). ECAR (extracellular acidification rate) was then measured using Seahorse Bioscience XFe24 extracellular flux analyzer (Agilent, Santa Clara, Calif.) according to the manufacturer's protocol. For the mitostress assay, cells were prepared like the glycostress assay with the exception that the XF base incubation media was supplemented with pyruvate (1 mM), glutamine (2 mM) and glucose (10 mM). Oligomycin (56 μL, 10 μM), FCCP (62 μL, 10 μM) and Rotenone+Antimycin-A (69 μL, 5 μM) were added to the flux pack wells. OCR (oxygen consumption rate) was then identified according to the manufacturer's protocol. Data was normalized to cell number as determined by flow cytometry. All the chemicals used for these experiments, unless specified, were procured from Sigma-Aldrich.

PDH = assay: Pyruvate dehydrogenase assay in lung tissue; type: in vivo, rat; conditions: SU2 rats, NP treatment
Experimental: Lung tissue was lysed using RIPA buffer and the lysate was used for the PDH activity. PDH activity was measured with PDH Activity Assay Kit (MAK183, Sigma-Aldrich) per the manufacturer protocol.

sugen/hypoxia PAH model [3] = assay: Metabolic intermediates analysis of lung lysate (PCA); type: in vivo, rat; conditions: SU2+NP versus SU2
Experimental: Data were acquired using the West Coast Metabolomics Center at UC Davis. Briefly, Restek corporation Rtx-5Sil MS column was used with helium mobile phase at temperature interval (50-330° C.) and flow-rate: 1 mL min-1. Injection volume was 0.5 μL at 50° C. ramped to 250° C. by 12° C. s-1. Oven temperature started at 50° C. for 1 min, then ramped at 20° C. min-1 to 330° C., and held constant for 5 min. Mass spectrometry analysis was done on a Leco Pegasus IV mass spectrometer with unit mass resolution at 17 spectra s-1 from 80-500 Da at −70 eV ionization energy and 1800 V detector voltage with a 230° C. transfer line and a 250° C. ion source. Raw data files were preprocessed directly after data acquisition and stored as ChromaTOF-specific*.peg files, as generic*.txt result files and additionally as generic ANDI MS*.cdf files. ChromaTOF vs. 2.32 was used for data preprocessing without smoothing, 3s peak width, baseline subtraction just above the noise level, and automatic mass spectral deconvolution and peak detection at signal/noise levels of 5:1 throughout the chromatogram. Apex masses were reported for use in the BinBase algorithm. Result*.txt files were exported to a data server with absolute spectra intensities and further processed by a filtering algorithm implemented in the metabolomics BinBase database.

sugen/hypoxia PAH model [4] = assay: Hemodynamic measurement (RVSP, Fulton index), sugen/hypoxia PAH model; type: in vivo, rat; conditions: SU2 rats, NP 0.1 mg/kg/day i.v. two-weeks
Experimental: Animals were anesthetized with inactin 100 mg/kg intraperitoneally (i.p.) (T133, Sigma-Aldrich). A customized pressure transducer catheter (SPR-513, Millar Instruments, Houston, Tex.) was inserted into RV via the right jugular vein and advanced into the right ventricle to monitor right ventricular systolic pressure (RVSP) as described previously. Briefly, the pressure transducer catheter was connected to a Millar Transducer Control Unit TC-510 and PL3504 PowerLab 4/35 data acquisition system (AD Instruments, Colorado Springs, Colo.) to monitor RV pressure for 30-min. After this a tracheal catheter was connected to a ventilator system (Harvard Rodent Ventilator-683; Harvard Apparatus, South Natick, Mass.), the thorax was opened, and the lungs flushed with 0.9% sodium chloride through the right ventricle (RV). Heart and lungs were collected from animals; the RV free wall was separated from the left ventricle (LV), and the septum (5). Fulton index (RV/LV+S ratio) as a parameter of RV hypertrophy was calculated. The total wet lung weight was measured and normalized by the body weight of the animal. The left lung was fixed in formalin and embedded in paraffin for histological examination. The other portion of the lung was stored at −80° C. for further biochemical studies.

sugen/hypoxia PAH model [5] = assay: Histological analysis of pulmonary arteries (EVG, Ki-67), sugen/hypoxia PAH model; type: in vivo, rat; conditions: SU2 rats, NP 0.1 mg/kg/day i.v. two-weeks
Text: For the morphometric assessment of pulmonary vessels 5-μm tissue sections were dewaxed and stained with elastic fibers—Verhoeffs van gieson (EVG) by HistoWiz Inc. (Brooklyn, N.Y.) using standard operating procedures and a fully automated workflow system. Ten transversely sectioned pulmonary arteries (diameter<300 μm) within each category per each animal (N=6 per group) were randomly selected from the whole-slide 40X digitized image Aperio AT2 scanner (Leica Biosystems, Ill.). Immunohistochemistry was performed using standard protocols. The sections were deparaffinized and incubated with primary antibodies against Akt Y350 NO2 (1:100), and Ki67 (1:800) (ab15580 Abcam); Dab Rabbit H1 (pH 6) for 20 min. The morphometric analysis was done by an investigator by a blinded grouping fashion. The wall thickness of the pulmonary artery (PA) was measured using the publicly available software Fiji is just ImageJ (http://fiji.sc/Fiji; in the public domain).

HPASMCs [6] = assay: Seahorse glycostress assay (ECAR); type: cell-based, human; conditions: SIN-1 treatment
Experimental: as §2

Akt [7] = assay: Western blot of Akt nitration, phosphorylation and total nitration in lung lysate, sugen/hypoxia PAH model; type: in vivo, rat; conditions: SU2 rats, NP 0.1 mg/kg/day i.v. two-weeks
Experimental: as §1, with “antibodies.” for “antibodies. Affinity purification was done using large reusable affinity purification columns against the unmodified and nitrated peptides.”, “The protein loading was normalized per total sample protein as fold control using stain free gels as previously described.” left out

Akt [8] = target: T1, Akt (Rattus norvegicus, UniProt P47196); assay: as above; type: in vivo; conditions: sugen/hypoxia rats two-weeks (SU2), NP 0.1 mg/kg/day i.v.
T1 construct: nitro Akt, phospho Akt and total Akt expression in the lung lysate; from tissue; host or cells: rat lung (Sprague Dawley, sugen/hypoxia model)
T1 sequence (P47196 whole entry): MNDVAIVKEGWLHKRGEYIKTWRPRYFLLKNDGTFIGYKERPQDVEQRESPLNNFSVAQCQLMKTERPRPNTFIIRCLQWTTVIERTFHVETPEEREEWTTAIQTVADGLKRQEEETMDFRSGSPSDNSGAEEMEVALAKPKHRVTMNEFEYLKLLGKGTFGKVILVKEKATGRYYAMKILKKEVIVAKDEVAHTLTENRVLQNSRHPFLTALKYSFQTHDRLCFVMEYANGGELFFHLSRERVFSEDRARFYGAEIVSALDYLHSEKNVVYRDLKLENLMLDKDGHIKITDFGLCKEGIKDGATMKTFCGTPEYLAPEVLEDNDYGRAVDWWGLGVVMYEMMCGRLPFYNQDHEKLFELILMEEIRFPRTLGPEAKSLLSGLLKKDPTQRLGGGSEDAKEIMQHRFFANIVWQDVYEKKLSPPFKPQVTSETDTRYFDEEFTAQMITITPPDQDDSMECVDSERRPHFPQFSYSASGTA
Experimental: as §1, with “antibodies.” for “antibodies. Affinity purification was done using large reusable affinity purification columns against the unmodified and nitrated peptides.”, “The protein loading was normalized per total sample protein as fold control using stain free gels as previously described.” left out

Akt (Y350 nitration) = target: T2, Akt (Y350 nitration) (Homo sapiens, UniProt P31749); assay: Sin-1 induced Akt nitration assay in HPAECs; type: cell-based; conditions: 1 μM NP pretreatment 30 min, washed, then SIN-1 1 mM 1 hour
T2 construct: endogenous in cells; host or cells: HPAEC (human pulmonary artery endothelial cells)
T2 sequence (P31749 whole entry): as the sequence (P47196 whole entry) above, with N2S, E46D, S50A, R112K, T117E, A137S, T389K, N410G, D415H counted along it
Experimental: Human pulmonary artery endothelial cells (HPAECs) were cultured using an endothelium media specific for HPAEC with 10% FBS. Cells were used from passages 3-6. All experiments were performed on 80-90% confluent cells. Akt nitration was induced by treatment with 3-Morpholinosyndnomine (SIN-1) (1 mM) for 1 hour. NP pretreatment groups were treated with 1 μM NP for 30 min, and then cells were washed in PBS and treated with SIN-1 for 1 hour. All treatments were accompanied by including controls with the corresponding vehicle. After treatment, the cells were washed in PBS and lysed in a RIPA buffer containing protease and phosphatase inhibitor cocktail.
For an analysis of the total lung protein, lung tissues were lysed as previously described. Briefly, 20-40 mg of lung tissue (human/rat) was lysed in Permeabilization Buffer mixed with protease and phosphatase inhibitor cocktails using a Fisher Homogenizer 850. […] The protein concentration was measured using the BCA protein assay kit (Thermo Scientific, Rockford, Ill.). […] Since the quantification of the Akt nitration is not fully established by mass spectrometry, a common method was used by newly developed antibodies for the quantification of specific Y350 nitration of Akt. The reactive bands were visualized by chemiluminescent ChemiDoc™ MP Imaging System (Bio-Rad Laboratories Inc., Hercules, Calif.) and analyzed using Image Lab™ software. […]

sugen/hypoxic PAH model = conditions: cited from earlier work

For “NP: peptide Ser-Arg-IIe-Arg-Ser (SEQ ID NO: 1) with nitroxide (3-Carboxy-2,2,5,5-tetramethyl pyrroline-1-yloxy) covalently attached to the free N-terminal amine”, the LDHA activity (LDH) was “attenuating”, the “pyruvate carboxylase (PC) expression” value (sugen/hypoxia PAH model [1]; NP 0.1 mg/kg/day i.v. two-weeks) was “decreased” and the G6PD expression (sugen/hypoxia PAH model [1]; NP treatment) was “upregulated significantly”. For the same compound, the GSK3β expression (sugen/hypoxia PAH model [1]; NP treatment) was “reversed”, the “Glut4 translocation to membrane (membrane/cytosol ratio)” value (sugen/hypoxia PAH model [1]; NP treatment) was “attenuated” and the LDHA expression (sugen/hypoxia PAH model [1]; NP treatment) was “attenuating”. The PDH expression (sugen/hypoxia PAH model [1]; NP treatment) was “significantly increased”, the PGC1α expression (sugen/hypoxia PAH model [1]; NP treatment) was “significantly reduced” and the basal respiration rate (HPASMCs [2]) was “without affecting”. The “mitochondrial oxidative phosphorylation rate (OCR)” value (HPASMCs [2]) was “upregulated the oxidative phosphorylation rate to control level”, the PDH activity (PDH) was “increased” and the “metabolites significantly restored by treatment” value (sugen/hypoxia PAH model [3]) was 30 metabolites. The “Fulton index (RV/LV+S), RV hypertrophy” value (sugen/hypoxia PAH model [4]) was “markedly decreased; also recorded: reversed”, the “right ventricular systolic pressure (RVSP)” value (sugen/hypoxia PAH model [4]; SU2 without NP 71.9±3.6, p<0.001) was 36.1±2.6 and the “EVG staining: perivascular fibrosis, vasoconstriction and proliferation in pulmonary arteries” value (sugen/hypoxia PAH model [5]) was “significantly attenuated”. The “vascular remodeling and cellular proliferation (Ki-67 staining)” value (sugen/hypoxia PAH model [5]) was “effectively prevented”, the Glycolytic capacity (HPASMCs [6]) was “attenuated” and the “glycolysis (glycolytic rate, ECAR)” value (HPASMCs [6]) was “attenuated this back to control level”. The “Phosphorylation of Akt at Ser-473” value (Akt [7]; lung lysate) was “does not affect”, the “total Akt expression” value (Akt [7]; lung lysate) was “did not change” and the “total nitration in lungs” value (Akt [7]; selectivity toward Akt nitration) was “did not significantly alter”. The “nitroAkt modification in the lung tissue” value (Akt [8]) was “significantly reduced; also recorded: remarkable reduction” and the “reduction of Akt nitration (Y350)” value (Akt (Y350 nitration)) was 55%.
For `CC1(C)CC(O)CC(C)(C)N1[O]` [TEMPOL], the “preventing pulmonary arterial remodeling” value (sugen/hypoxic PAH model; recently reported) is given as “not effective” and the “right ventricular hypertrophy and pulmonary arterial remodeling” value (sugen/hypoxic PAH model; sugen/hypoxic PAH model, reported) is given as “failed to attenuate”.
